# Patent US20240150360A1 (THE REGENTS OF THE UNIVERSITY OF MICHIGAN, priority 2021, published 2024)
# Like-named read-outs stand apart in the source and are kept apart here.
# Tests used:
# CBP = molecular target: T1, CBP (Homo sapiens, UniProt Q92793); experiment: CBP degradation in 22Rv1 cells (5 h); type: cell-based; details: for Dmax: 22Rv1, 5 h, read-out: CBP Degradation (22Rv1, 5 h) DCmax
# T1 construct: endogenous in cells; host or cells: 22Rv1 (ATCC CRL-2505) human prostate cancer cells
# Description: (§1) Biological Assays. […] Cells with 3-8 passages after purchase were used in experiments.
# 22Rv1 cells = experiment: Cell growth inhibition assay (CellTiter-Glo) in 22Rv1; type: cell-based, human; details: Homo sapiens, 22Rv1 cells, 96 h incubation, read-out: Cell Growth Inhibition (IC50) 22Rv1
# Outline: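 22Rv1 prostate cancer cells (passages 3-8, DMEM with 10% FBS) were seeded at 4000 cells/well with compound, 3-fold dilutions from 10 μM final. After 96 h at 37° C and 5% CO2, growth was read by CellTiter-Glo 2.0 luminescence.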
# P300 = molecular target: T2, P300 (Homo sapiens, UniProt Q09472); experiment: P300 degradation in 22Rv1 cells (5 h); type: cell-based; details: for Dmax: read-out: P300 Degradation (22Rv1, 5 h) DCmax
# T2 construct: endogenous in cells; host or cells: 22Rv1 (ATCC CRL-2505) human prostate cancer cells
# Description: as §1
# HL60 = experiment: Cell growth inhibition in HL60; type: cell-based; details: Homo sapiens, HL-60, HL60 cells; read-out: Cell Growth Inhibition (IC50) HL60
# T2 sequence (Q09472 whole entry): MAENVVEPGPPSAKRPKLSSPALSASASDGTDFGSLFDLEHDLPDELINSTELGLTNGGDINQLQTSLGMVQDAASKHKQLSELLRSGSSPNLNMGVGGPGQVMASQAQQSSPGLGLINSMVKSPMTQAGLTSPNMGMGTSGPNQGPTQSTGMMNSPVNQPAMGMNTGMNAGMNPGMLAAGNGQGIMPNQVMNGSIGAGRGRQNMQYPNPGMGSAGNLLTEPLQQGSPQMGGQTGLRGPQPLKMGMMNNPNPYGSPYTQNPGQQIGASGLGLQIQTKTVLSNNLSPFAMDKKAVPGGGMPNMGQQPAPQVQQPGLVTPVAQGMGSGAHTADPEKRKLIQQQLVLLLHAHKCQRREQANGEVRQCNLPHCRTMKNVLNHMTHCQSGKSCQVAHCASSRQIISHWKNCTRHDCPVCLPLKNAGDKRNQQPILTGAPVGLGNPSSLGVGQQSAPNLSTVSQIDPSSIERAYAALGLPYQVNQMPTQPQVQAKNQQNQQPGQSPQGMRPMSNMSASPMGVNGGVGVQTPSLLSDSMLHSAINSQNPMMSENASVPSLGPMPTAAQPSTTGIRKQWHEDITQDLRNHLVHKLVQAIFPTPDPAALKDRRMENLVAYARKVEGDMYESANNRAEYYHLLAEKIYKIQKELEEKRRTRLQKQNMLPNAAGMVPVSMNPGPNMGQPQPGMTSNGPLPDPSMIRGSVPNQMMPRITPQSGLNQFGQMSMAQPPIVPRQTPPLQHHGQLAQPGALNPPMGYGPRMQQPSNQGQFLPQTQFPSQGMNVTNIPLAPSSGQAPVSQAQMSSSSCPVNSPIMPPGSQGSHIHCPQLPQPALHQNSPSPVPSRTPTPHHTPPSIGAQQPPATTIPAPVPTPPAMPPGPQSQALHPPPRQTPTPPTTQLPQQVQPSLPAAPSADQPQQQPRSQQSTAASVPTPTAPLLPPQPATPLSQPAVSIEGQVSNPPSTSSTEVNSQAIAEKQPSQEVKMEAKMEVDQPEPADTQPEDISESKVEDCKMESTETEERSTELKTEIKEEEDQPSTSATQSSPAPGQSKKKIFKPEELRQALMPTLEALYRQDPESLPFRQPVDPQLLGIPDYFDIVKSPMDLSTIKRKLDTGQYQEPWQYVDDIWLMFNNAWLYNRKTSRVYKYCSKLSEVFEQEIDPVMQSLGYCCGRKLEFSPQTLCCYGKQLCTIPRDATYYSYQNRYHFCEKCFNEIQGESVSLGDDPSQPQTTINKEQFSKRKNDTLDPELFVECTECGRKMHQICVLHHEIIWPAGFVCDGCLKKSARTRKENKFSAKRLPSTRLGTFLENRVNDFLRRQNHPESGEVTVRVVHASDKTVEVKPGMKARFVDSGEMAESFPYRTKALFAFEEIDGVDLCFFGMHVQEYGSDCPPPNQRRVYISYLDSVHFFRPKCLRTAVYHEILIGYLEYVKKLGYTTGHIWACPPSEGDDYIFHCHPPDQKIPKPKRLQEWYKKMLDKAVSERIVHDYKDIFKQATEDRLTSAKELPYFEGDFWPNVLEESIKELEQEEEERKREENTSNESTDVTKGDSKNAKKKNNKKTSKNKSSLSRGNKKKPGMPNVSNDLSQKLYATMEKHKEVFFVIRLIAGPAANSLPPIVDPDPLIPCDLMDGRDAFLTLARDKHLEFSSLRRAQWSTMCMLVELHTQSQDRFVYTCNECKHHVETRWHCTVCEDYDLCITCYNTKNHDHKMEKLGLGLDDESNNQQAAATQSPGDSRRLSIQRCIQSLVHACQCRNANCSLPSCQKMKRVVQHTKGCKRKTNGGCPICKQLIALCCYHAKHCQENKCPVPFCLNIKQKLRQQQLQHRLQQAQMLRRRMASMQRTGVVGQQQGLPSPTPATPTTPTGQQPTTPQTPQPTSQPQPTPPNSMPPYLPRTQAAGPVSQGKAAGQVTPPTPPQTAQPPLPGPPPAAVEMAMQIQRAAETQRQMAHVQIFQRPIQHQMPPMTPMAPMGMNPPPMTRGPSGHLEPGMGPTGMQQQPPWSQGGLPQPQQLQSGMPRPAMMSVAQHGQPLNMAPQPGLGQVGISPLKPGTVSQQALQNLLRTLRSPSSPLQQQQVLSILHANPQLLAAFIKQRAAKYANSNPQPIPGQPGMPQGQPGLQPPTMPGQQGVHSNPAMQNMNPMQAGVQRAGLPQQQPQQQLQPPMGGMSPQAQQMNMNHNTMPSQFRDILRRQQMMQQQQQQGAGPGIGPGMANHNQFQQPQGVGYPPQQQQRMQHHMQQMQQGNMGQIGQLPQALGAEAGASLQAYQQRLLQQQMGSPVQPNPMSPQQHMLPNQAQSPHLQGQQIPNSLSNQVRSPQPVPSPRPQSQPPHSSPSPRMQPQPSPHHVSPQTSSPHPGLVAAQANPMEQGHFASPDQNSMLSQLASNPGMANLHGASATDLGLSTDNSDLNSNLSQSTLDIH
# T1 sequence (Q92793 whole entry): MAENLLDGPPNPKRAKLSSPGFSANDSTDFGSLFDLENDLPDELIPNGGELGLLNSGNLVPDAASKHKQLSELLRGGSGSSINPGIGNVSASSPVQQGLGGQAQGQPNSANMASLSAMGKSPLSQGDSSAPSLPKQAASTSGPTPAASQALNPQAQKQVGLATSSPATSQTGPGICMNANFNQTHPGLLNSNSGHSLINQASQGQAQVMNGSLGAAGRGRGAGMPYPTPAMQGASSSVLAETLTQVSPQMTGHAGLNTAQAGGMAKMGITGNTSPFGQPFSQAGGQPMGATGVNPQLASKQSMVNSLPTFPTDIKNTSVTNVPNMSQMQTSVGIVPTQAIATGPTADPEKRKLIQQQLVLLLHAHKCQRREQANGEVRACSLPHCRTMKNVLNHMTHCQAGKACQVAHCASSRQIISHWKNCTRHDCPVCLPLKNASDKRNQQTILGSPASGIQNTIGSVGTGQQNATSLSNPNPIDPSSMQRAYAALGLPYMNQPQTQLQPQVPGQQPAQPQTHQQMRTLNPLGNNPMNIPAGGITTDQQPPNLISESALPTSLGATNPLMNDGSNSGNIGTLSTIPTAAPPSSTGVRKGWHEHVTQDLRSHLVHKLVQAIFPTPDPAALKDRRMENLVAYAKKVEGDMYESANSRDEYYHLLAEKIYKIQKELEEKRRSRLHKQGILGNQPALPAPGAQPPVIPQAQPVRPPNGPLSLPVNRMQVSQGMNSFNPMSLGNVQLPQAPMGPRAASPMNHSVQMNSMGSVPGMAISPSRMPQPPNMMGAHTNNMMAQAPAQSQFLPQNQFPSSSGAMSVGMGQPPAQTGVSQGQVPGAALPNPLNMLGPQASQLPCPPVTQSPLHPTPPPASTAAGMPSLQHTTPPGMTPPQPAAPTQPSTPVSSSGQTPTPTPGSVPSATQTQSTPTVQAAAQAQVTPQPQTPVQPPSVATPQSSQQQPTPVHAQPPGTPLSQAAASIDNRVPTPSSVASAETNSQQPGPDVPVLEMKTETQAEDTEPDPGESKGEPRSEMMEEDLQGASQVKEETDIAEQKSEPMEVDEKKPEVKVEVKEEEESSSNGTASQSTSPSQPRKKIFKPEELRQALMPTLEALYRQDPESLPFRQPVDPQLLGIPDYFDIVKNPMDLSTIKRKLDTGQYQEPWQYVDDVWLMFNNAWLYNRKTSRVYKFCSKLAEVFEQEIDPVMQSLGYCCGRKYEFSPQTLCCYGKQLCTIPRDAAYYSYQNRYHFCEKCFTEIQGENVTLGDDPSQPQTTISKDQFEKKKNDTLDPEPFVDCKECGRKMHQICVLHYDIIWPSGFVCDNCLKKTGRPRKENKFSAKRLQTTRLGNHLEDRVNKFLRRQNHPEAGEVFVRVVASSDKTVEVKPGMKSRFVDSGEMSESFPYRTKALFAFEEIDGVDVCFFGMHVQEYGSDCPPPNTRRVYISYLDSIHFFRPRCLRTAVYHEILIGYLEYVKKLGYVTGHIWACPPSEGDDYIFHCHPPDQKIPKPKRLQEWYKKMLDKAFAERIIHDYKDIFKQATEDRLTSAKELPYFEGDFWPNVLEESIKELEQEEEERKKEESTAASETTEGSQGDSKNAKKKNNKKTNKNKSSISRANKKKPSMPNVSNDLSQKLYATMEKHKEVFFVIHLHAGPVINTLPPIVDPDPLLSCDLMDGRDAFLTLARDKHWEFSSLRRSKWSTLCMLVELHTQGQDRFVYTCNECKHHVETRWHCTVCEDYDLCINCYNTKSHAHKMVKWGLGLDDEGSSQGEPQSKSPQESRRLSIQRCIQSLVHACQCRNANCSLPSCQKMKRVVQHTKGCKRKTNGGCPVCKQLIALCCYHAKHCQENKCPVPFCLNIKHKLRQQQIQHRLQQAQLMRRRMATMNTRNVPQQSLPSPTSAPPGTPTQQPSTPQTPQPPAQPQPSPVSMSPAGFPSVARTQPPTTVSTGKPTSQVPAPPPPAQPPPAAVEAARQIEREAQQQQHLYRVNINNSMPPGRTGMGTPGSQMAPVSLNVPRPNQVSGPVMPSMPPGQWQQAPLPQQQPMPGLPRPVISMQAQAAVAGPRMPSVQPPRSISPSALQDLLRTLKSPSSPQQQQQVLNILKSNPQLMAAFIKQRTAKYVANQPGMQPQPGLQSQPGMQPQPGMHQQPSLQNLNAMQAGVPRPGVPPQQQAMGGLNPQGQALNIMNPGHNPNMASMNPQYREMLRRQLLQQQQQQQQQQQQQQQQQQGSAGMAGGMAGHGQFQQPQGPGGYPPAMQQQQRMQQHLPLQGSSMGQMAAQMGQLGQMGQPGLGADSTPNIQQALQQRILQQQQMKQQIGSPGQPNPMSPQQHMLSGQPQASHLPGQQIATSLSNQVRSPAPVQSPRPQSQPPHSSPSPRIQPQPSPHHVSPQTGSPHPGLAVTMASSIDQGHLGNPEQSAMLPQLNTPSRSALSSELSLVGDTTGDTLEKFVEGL
Structure (SMILES),"Dmax (CBP; 22Rv1 cells, 5 h) [%]","DC50 (CBP; 22Rv1 cells, 5 h) [µM]","IC50 (22Rv1 cells; 22Rv1, 96 h) [µM]","DC50 (P300; 22Rv1 cells, 5 h) [µM]","Dmax (P300; 22Rv1 cells, 5 h) [%]",IC50 (HL60) [µM],Dmax (CBP) [%],IC50 (22Rv1 cells) [µM],"Dmax (P300; 22Rv1, 5 h) [%]"
"CC(=O)N1Cc2c(N3CCCc4cc(-c5cnn(C)c5)c(C(F)F)cc43)nn(C3CCN(C(=O)CN4Cc5cc6c(cc5C4)C(=O)N(C4CCC(=O)NC4=O)C6=O)CC3)c2C(C)(C)C1 (stereo not drawn) [CP-084, 6-(2-(4-(5-acetyl-3-(7-(difluoromethyl)-6-(1-methyl-1H-pyrazol-4-yl)-3,4-dihydroquinolin-1(2H)-yl)-7,7-dimethyl-4,5,6,7-tetrahydro-1H-pyrazolo[4,3-c]pyridin-1-yl)piperidin-1-yl)-2-oxoethyl)-2-(2,6-dioxopiperidin-3-yl)-6,7-dihydropyrrolo[3,4-f]isoindole-1,3(2H,5H)-dione]",< 50,> 1,> 10,> 1,< 50,> 10,–,–,–
"Cn1cc(-c2cc3c(cc2C(F)F)N(c2nn(C4CCN(C(=O)CN5Cc6cc7c(cc6C5)C(=O)N(C5CCC(=O)NC5=O)C7=O)CC4)c4c2CN(C(=O)CF)CC4)CCC3)cn1 (stereo not drawn) [CP-053, 6-(2-(4-(3-(7-(difluoromethyl)-6-(1-methyl-1H-pyrazol-4-yl)-3,4-dihydroquinolin-1(2H)-yl)-5-(2-fluoroacetyl)-4,5,6,7-tetrahydro-1H-pyrazolo[4,3-c]pyridin-1-yl)piperidin-1-yl)-2-oxoethyl)-2-(2,6-dioxopiperidin-3-yl)-6,7-dihydropyrrolo[3,4-f]isoindole-1,3(2H,5H)-dione]",–,< 0.01,–,< 0.1,–,< 1,> 70,< 1,> 50
"CC(=O)N1CCc2c(c(N3CCCc4cc5c(cc43)CCCC5)nn2C2CCN(C(=O)CN3Cc4cc5c(cc4C3)C(=O)N(C3CCC(=O)NC3=O)C5=O)CC2)C1 (stereo not drawn) [CP-077, 6-(2-(4-(5-acetyl-3-(3,4,6,7,8,9-hexahydrobenzo[g]quinolin-1(2H)-yl)-4,5,6,7-tetrahydro-1H-pyrazolo[4,3-c]pyridin-1-yl)piperidin-1-yl)-2-oxoethyl)-2-(2,6-dioxopiperidin-3-yl)-6,7-dihydropyrrolo[3,4-f]isoindole-1,3(2H,5H)-dione]",> 90,< 0.01,< 1,< 0.01,> 90,< 1,–,–,–
"Cn1cc(-c2cc3c(cc2C(F)F)N(c2nn(C4CCN(C(=O)CN5Cc6cc7c(cc6C5)C(=O)N(C5CCC(=O)NC5=O)C7=O)CC4)c4c2CN(CC(F)F)CC4)CCC3)cn1 (stereo not drawn) [CP-058, 6-(2-(4-(5-(2,2-difluoroethyl)-3-(7-(difluoromethyl)-6-(1-methyl-1H-pyrazol-4-yl)-3,4-dihydroquinolin-1(2H)-yl)-4,5,6,7-tetrahydro-1H-pyrazolo[4,3-c]pyridin-1-yl)piperidin-1-yl)-2-oxoethyl)-2-(2,6-dioxopiperidin-3-yl)-6,7-dihydropyrrolo[3,4-f]isoindole-1,3(2H,5H)-dione]",< 50,> 1,> 10,> 1,< 50,> 10,–,–,–
"CC(=O)N1CCc2c(c(N3CCCc4cc(C5CC5)c(C(F)F)cc43)nn2C2CCN(C(=O)CN3Cc4cc5c(cc4C3)C(=O)N(C3CCC(=O)NC3=O)C5=O)CC2)C1 (stereo not drawn) [CP-013, 6-(2-(4-(5-acetyl-3-(6-cyclopropyl-7-(difluoromethyl)-3,4-dihydroquinolin-1(2H)-yl)-4,5,6,7-tetrahydro-1H-pyrazolo[4,3-c]pyridin-1-yl)piperidin-1-yl)-2-oxoethyl)-2-(2,6-dioxopiperidin-3-yl)-6,7-dihydropyrrolo[3,4-f]isoindole-1,3(2H,5H)-dione]",> 90,< 0.01,< 1,< 0.01,> 90,< 1,–,–,–
"CC(=O)N1CCc2c(c(N3CCCc4cc(-c5cnn(C)c5)c(C(F)F)cc43)nn2[C@H]2CC[C@H](CN3CCc4cc5c(cc4C3)C(=O)N(C3CCC(=O)NC3=O)C5=O)CC2)C1 (stereo partly drawn) [CP-049, 6-((4-(5-acetyl-3-(7-(difluoromethyl)-6-(1-methyl-1H-pyrazol-4-yl)-3,4-dihydroquinolin-1(2H)-yl)-4,5,6,7-tetrahydro-1H-pyrazolo[4,3-c]pyridin-1-yl)cyclohexyl)methyl)-2-(2,6-dioxopiperidin-3-yl)-5,6,7,8-tetrahydro-1H-pyrrolo[3,4-g]isoquinoline-1,3(2H)-dione]",> 90,< 0.01,< 0.1,< 0.01,> 70,< 0.1,–,–,–
"CC(=O)N1CCc2c(c(N3CCCc4cc(-c5ccccc5)c(C(F)F)cc43)nn2C2CCN(C(=O)CN3Cc4cc5c(cc4C3)C(=O)N(C3CCC(=O)NC3=O)C5=O)CC2)C1 (stereo not drawn) [CP-022, 6-(2-(4-(5-acetyl-3-(7-(difluoromethyl)-6-phenyl-3,4-dihydroquinolin-1(2H)-yl)-4,5,6,7-tetrahydro-1H-pyrazolo[4,3-c]pyridin-1-yl)piperidin-1-yl)-2-oxoethyl)-2-(2,6-dioxopiperidin-3-yl)-6,7-dihydropyrrolo[3,4-f]isoindole-1,3(2H,5H)-dione]",> 90,< 0.01,< 0.1,< 0.01,> 90,< 0.1,–,–,–
"Cc1noc(C)c1-c1ccc2c(c1)nc([C@@H]1CCCC(=O)N1c1ccc(F)c(F)c1)n2C1CCN(C(=O)CN2Cc3cc4c(cc3C2)C(=O)N(C2CCC(=O)NC2=O)C4=O)CC1 (stereo partly drawn) [CP-061, 6-(2-(4-(2-((S)-1-(3,4-difluroophenyl)-6-oxopiperidin-2-yl)-5-(3,5-dimethylisoxazol-4-yl)-1H-benzo[d]imidazol-1-yl)piperidin-1-yl)-2-oxoethyl)-2-(2,6-dioxopiperidin-3-yl)-6,7-dihydropyrrolo[3,4-f]isoindole-1,3(2H,5H)-dione]",> 50,< 0.1,> 10,> 1,< 50,> 10,–,–,–
"CC(=O)N1CCc2c(c(N3CCCc4cc(CCC(C)C)c(C(F)F)cc43)nn2C2CCN(C(=O)CN3Cc4cc5c(cc4C3)C(=O)N(C3CCC(=O)NC3=O)C5=O)CC2)C1 (stereo not drawn) [CP-026, 6-(2-(4-(5-acetyl-3-(7-(difluoromethyl)-6-isopentyl-3,4-dihydroquinolin-1(2H)-yl)-4,5,6,7-tetrahydro-1H-pyrazolo[4,3-c]pyridin-1-yl)piperidin-1-yl)-2-oxoethyl)-2-(2,6-dioxopiperidin-3-yl)-6,7-dihydropyrrolo[3,4-f]isoindole-1,3(2H,5H)-dione]",> 90,< 0.01,< 1,< 0.01,> 70,< 0.1,–,–,–
"CC(=O)N1CCc2c(c(N3CCCc4cc5c(cc43)C(C)(C)CCC5)nn2C2CCN(C(=O)CN3Cc4cc5c(cc4C3)C(=O)N(C3CCC(=O)NC3=O)C5=O)CC2)C1 (stereo not drawn) [CP-083, 6-(2-(4-(5-acetyl-3-(9,9-dimethyl-3,4,6,7,8,9-hexahydrobenzo[g]quinolin-1(2H)-yl)-4,5,6,7-tetrahydro-1H-pyrazolo[4,3-c]pyridin-1-yl)piperidin-1-yl)-2-oxoethyl)-2-(2,6-dioxopiperidin-3-yl)-6,7-dihydropyrrolo[3,4-f]isoindole-1,3(2H,5H)-dione]",< 50,> 1,> 10,> 1,< 50,> 10,–,–,–
"Cc1noc(C)c1-c1ccc2c(c1)nc([C@@H]1CCCC(=O)N1c1ccc(F)c(F)c1)n2C1CCN(C(=O)CN2CCc3cc4c(cc3C2)C(=O)N(C2CCC(=O)NC2=O)C4=O)CC1 (stereo partly drawn) [CP-063, 6-(2-(4-(2-((S)-1-(3,4-difluorophenyl)-6-oxopiperidin-2-yl)-5-(3,5-dimethylisoxazol-4-yl)-1H-benzo[d]imidazol-1-yl)piperidin-1-yl)-2-oxoethyl)-2-(2,6-dioxopiperidin-3-yl)-5,6,7,8-tetrahydro-1H-pyrrolo[3,4-g]isoquinoline-1,3(2H)-dione]",< 50,> 1,> 10,> 1,< 50,> 10,–,–,–
"CC(=O)N1CCc2c(c(-c3cccc4ccccc34)nn2C2CCN(C(=O)CN3CCc4cc5c(cc4C3)C(=O)N(C3CCC(=O)NC3=O)C5=O)CC2)C1 (stereo not drawn) [CP-076, 6-(2-(4-(5-acetyl-3-(naphthalen-1-yl)-4,5,6,7-tetrahydro-1H-pyrazolo[4,3-c]pyridin-1-yl)piperidin-1-yl)-2-oxoethyl)-2-(2,6-dioxopiperidin-3-yl)-5,6,7,8-tetrahydro-1H-pyrrolo[3,4-g]isoquinoline-1,3(2H)-dione]",> 90,< 0.01,> 10,< 0.01,> 70,< 1,–,–,–
"CC(=O)N1CCc2c(c(N3CCCc4cc(-c5cccs5)c(C(F)F)cc43)nn2C2CCN(C(=O)CN3Cc4cc5c(cc4C3)C(=O)N(C3CCC(=O)NC3=O)C5=O)CC2)C1 (stereo not drawn) [CP-024, 6-(2-(4-(5-acetyl-3-(7-(difluoromethyl)-6-(thiophen-2-yl)-3,4-dihydroquinolin-1(2H)-yl)-4,5,6,7-tetrahydro-1H-pyrazolo[4,3-c]pyridin-1-yl)piperidin-1-yl)-2-oxoethyl)-2-(2,6-dioxopiperidin-3-yl)-6,7-dihydropyrrolo[3,4-f]isoindole-1,3(2H,5H)-dione]",> 90,< 0.01,< 1,< 0.01,> 70,< 0.1,–,–,–
